Test results: patent publication EP4108244A1, “SS-LACTAM ANTIBIOTIC WITH SIGNIFICANT ACTIVITY AGAINST CANCER E.G. COLON MALIGNANCIES” (priority 2021, dated 2022)

Legend:
[1] = Body weight and survival in the xenograft model; type: in vivo, NOD/SCID mice
Protocol: Twelve NOD/SCID mice were randomly distributed into two groups (6 mice/group). HCT-116 colon cancer cells (3.5 million) suspended in sterile physiological solution (0.9% NaCl) were injected subcutaneously into the flank of 4 to 6-week old mice. Animals were kept in a light- and temperature-controlled environment and provided with food and water ad libitum. The tumor size was monitored and determined three times per week using a sterile Vernier caliper. Tumor volume was calculated by the following formula: Volume=π/6^∗(length × width × height). Once the tumor size reached seven mm^3, mice were treated three times per week for 21 days with intraperitoneal injections of vehicle (control group) or ceftazidime (10 mg/mouse). Growth delay was assessed by comparing the size of tumors in treated animals to those of control animals. Ethical approval was obtained before the beginning of the experiments.

[2] = Stability in media, LC-MS/MS; type: physicochemical; details: antibiotic alone (CFP 50 µg/mL, CFT 100 µg/mL)
Protocol: B) CFT (100 µg/ml) ± 5-FU (8 µM and 16 µM). P value (a) (between antibiotic alone and 5-FU (8 µM)); P value (b) (between antibiotic alone and 5-FU (16 µM)), n = 3.

HCT-116 cells = assay: Caspase-3/7 activity assay; type: cell-based, human; details: combined with 5-FU 8 µM, 48 and 72h, CFT 100 µg/ml, CFP 50 µg/ml
Protocol: (§1) Caspase-3/7 activity was measured 48 h and 72 h post-treatment according to the manufacturer's protocol (Caspase-Glo-3/7 Assay, Promega Corp, Madison, WI, USA). Briefly, equal volume from treated cells and caspase-3/7 mixture were incubated at room temperature for 3 h and the luminescence was measured by a microplate reader.

DLD-1 cells = assay: Caspase-3/7 activity assay; type: cell-based, human; details: CFT 100 µg/ml alone, vs. control untreated cells
Protocol: as §1
as §1, with “DLD-1 cells were treated with CFT (100 µg/ml) or 5-Fluorouracil (16 µM). Caspase-3/7” for “Caspase-3/7”, “caspase 3/7” for “caspase-3/7”

SMILES: CC(C)(O/N=C(\C(=O)N[C@@H]1C(=O)N2C(C(=O)[O-])=C(C[n+]3ccccc3)CS[C@H]12)c1csc(N)n1)C(=O)O [CFT, (6R,7R)-7-[[(2Z)-2-(2-amino-1,3-thiazol-4-yl)-2-(2-carboxypropan-2-yloxyimino)acetyl]amino]-8-oxo-3-(pyridin-1-ium-1-ylmethyl)-5-thia-1-azabicyclo[4.2.0]oct-2-ene-2-carboxylate]
- weight lost ([1]; after three weeks of treatment): 6.8%
- body weight ([1]; after three weeks of treatment, 10 mg/mouse): 19.8 g
- average weight of the mice ([1]; day of the first treatment): 21.3 g
- mortality (in words) ([1]; three weeks of treatment): none of the animals died
- protective effect on body weight ([1]; vs. control animals, three weeks): 58%
- Stability test, level in media ([2]; 2h in media): 104.4 ± 2.5
- Stability test, level in media ([2]; 8h in media): 103.4 ± 10.8
- effect on 5-FU-induced apoptosis (caspase 3/7, in words) (HCT-116 cells): antagonized 5-FU-induced apoptosis
- increase of the activity of caspase 3/7 (DLD-1 cells; 48 h): 20%
- increase of the activity of caspase 3/7 (DLD-1 cells; 72 h): 32.1%
